“And” between values parts separate entries of the source, which are not always exact repeats. Equal entries are not always repeated. Structures can show the parent of a compound that is named as a salt.
Tests used:
patients with FMS = settings: cited from earlier work
[1] = tested on: subjects suffering from fibromyalgia syndrome; settings: cited from earlier work; for subjects with significant clinical improvement: after one month; for long-term efficacy: at six months, 19% improvement with placebo; for difference from placebo: at three months
fibromyalgia patients = settings: cited from earlier work
[2] = tested on: patients who met the 1990 ACR criteria for fibromyalgia syndrome; assay: Multi-center double-blind, randomized, placebo-controlled study of milnacipran for fibromyalgia (Example 1, FMS031); assay type: in vivo, human; settings: for m, number of responders: observed cases; for percentage of responders (greater than 30% reduction in pain from baseline and improvement on the PGIC): observed cases (OC), hydrochloride
Protocol: The primary outcome was a composite responder analysis assessing response rate at weeks 14 and 15, and the secondary analysis assessed response rate at weeks 26 and 27.
This was a multi-center, randomized, double-blinded, placebo-controlled three-arm study, which enrolled 888 patients who met the 1990 ACR criteria for fibromyalgia syndrome as well as the more detailed admission criteria outlined in the protocol.
Patients recorded baseline symptoms for the first two weeks after washing off anti-depressants, benzodiazepines, and certain other drugs that could potentially interfere with efficacy measurements.
All randomized medications (placebo and milnacipran) were administered in a split-dose (BID) fashion. The doses were administered in a dose escalation regimen as outlined below: • Step 1: 12.5 mg 1 day (12.5 mg pm) • Step 2: 25 mg 2 days (12.5 mg am, 12.5 mg pm) • Step 3: 50 mg 4 days (25 mg am, 25 mg pm) • Step 4: 100 mg 7 days (50 mg am, 50 mg pm) • Step 5: 200 mg 7 days (100 mg am, 100 mg pm).
Patients were required to complete electronic diary, as well as additional paper assessments as described in the schedule of study assessments.
In addition to the daily completion of a proprietary electronic patient diary, the following assessments were obtained:
a. Primary Variables: patient global impression of change (PGIC) and the Fibromyalgia Impact Questionnaire (FIQ);
d. FMS Status Assessments:, Patient pain 24 hour and 7 day recall VAS, the SF-36, Multiple Ability Self-report Questionnaire (MASQ, cognitive function), the Multidimensional Health Assessment Questionnaire (MDHAQ) and the Multi-dimensional Fatigue Inventory (MFI). Diary assessments include current pain (morning, random daily, and evening reports); daily recall pain (morning report); medications taken (evening report); overall pain past week (weekly report), overall fatigue in the last week (weekly report), and the extent that pain kept the patient from caring for themselves (weekly report).
The primary endpoint of this study was a composite responder analysis implementing analysis of three domains of interest, evaluated at […]. The domains measured were:
1) pain (measured by an electronic diary as a daily recall pain score, calculated to weekly average scores);
2) patient global (measured by the PGIC, 1-7 scale); and
3) physical function (measured by the FIQ-PF).
For the primary analysis, the pain domain score was determined by a calculation that compared the average of treatment weeks 14 and 15 to the two baseline weeks, and treatment weeks 26 and 27 vs. baseline for the secondary analysis. The last observation was carried forward if neither the week 14 nor week 15 (or week 26/27) patient self-reported pain score is available to compare to the baseline value.
A responder was defined as a subject who experienced a greater than 30% reduction in pain from baseline and improvement on the PGIC.
See Table 1 for a summary of the results in the Intent-to-Treat Population and Table 2 for a summary of the Last Observation Carried Forward (LOCF), Baseline Observation Carried Forward (BOCF) and study completer (OC) populations. LOCF is an analysis in which observations are carried forward to the last time point for patients who dropped out. The LOCF analysis treats the carried-forward data as observed data at the last time point. BOCF is an analysis that requires the patient remain active in the trial to be evaluated for response. If a patient withdraws from the trial for any reason they are classed as a non-responder irregardless of their pain and global scores at the time of withdrawal.

[3] = both milnacipran treatment groups (BID and QD), up to 200 mg/day

COc1ccc(C(CN(C)C)C2(O)CCCCC2)cc1 (centres unmarked) [venlafaxine]
patients with insomnia requiring adjunctive medical therapy (patients with FMS; of 11 completing patients): 3 patients | patients with a positive response (50% or greater improvement in two different measurements of overall pain) (patients with FMS; of the 11 patients that completed the study): 6 patients

CN(C)CCC=C1c2ccccc2CCc2ccccc21 [amitriptyline]
subjects with significant clinical improvement [1]: 21% | long-term efficacy [1]: no long-term efficacy could be demonstrated | difference from placebo [1]: no difference between either treatment group and placebo

CCN(CC)C(=O)C1(c2ccccc2)CC1CN (centres unmarked) [milnacipran, Z-2-aminomethyl-1-phenyl-N,N-diethylcyclopropanecarboxamide hydrochloride]
deaths or serious adverse events associated with treatment (fibromyalgia patients; Phase II study): no deaths or serious adverse events | acute (short-term) efficacy on the symptom of pain in FMS (fibromyalgia patients; Phase II trial): effective acute (short-term) therapy for the symptom of pain in FMS | completers reporting an improvement in their overall status on the PGIC (fibromyalgia patients; [3]): over 70% | completers reporting worsening on the PGIC (fibromyalgia patients; [3]): 10% | patients with elevation in hepatic enzymes reported as adverse event (fibromyalgia patients; milnacipran-treated patients): 2% | efficacy of BID versus QD dosing in treating pain (fibromyalgia patients; twice-daily dosing compared with QD): more effective in treating pain than QD dosing | efficacy of BID versus QD dosing on fatigue, mood, global wellness, and function (fibromyalgia patients; twice-daily vs once-daily dosing, up to 200 mg/day): approximately equally effective | efficacy of low dose compared with high dose ([2]; 100 mg/day vs 200 mg/day, long-term treatment): almost as effective as continued administration of high dose milnacipran | Individual Component Responder Rate, PGIC (LOCF) ([2]; 100 mg, 3 month): 54.0% | Individual Component Responder Rate, Pain (LOCF) ([2]; 100 mg, 3 month): 35.7% | Pain Composite Responder Rate, Sensitivity Analysis I (BOCF) ([2]; 100 mg, 3 month): 32.1% | Pain Composite Responder Rate, Sensitivity Analysis II ([2]; 100 mg, 3 month): 32.% | Pain Composite Responder Rate, Sensitivity Analysis III ([2]; 100 mg, 3 month): 32.1% | Pain Composite Responder Rate, Primary Analysis (LOCF) ([2]; 100 mg, 3 month, N = 224): 33.5% | Individual Component Responder Rate, PGIC (LOCF) ([2]; 100 mg, 6 month): 49.6% | Individual Component Responder Rate, Pain (LOCF) ([2]; 100 mg, 6 month): 35.7% | Pain Composite Responder Rate, Sensitivity Analysis I (BOCF) ([2]; 100 mg, 6 month): 26.8% | Pain Composite Responder Rate, Sensitivity Analysis II ([2]; 100 mg, 6 month): 27.2% | Pain Composite Responder Rate, Sensitivity Analysis III ([2]; 100 mg, 6 month): 29.5% | Pain Composite Responder Rate, Primary Analysis (LOCF) ([2]; 100 mg, 6 month, N = 224): 30.8% | m, number of responders ([2]; 100 mg, treatment weeks 14-15, n = 135): 72 | m, number of responders ([2]; 100 mg, treatment weeks 26-27, n = 121): 60 | Individual Component Responder Rate, PGIC (LOCF) ([2]; 200 mg, 3 month): 50.6% | Individual Component Responder Rate, Pain (LOCF) ([2]; 200 mg, 3 month): 38.3% | Pain Composite Responder Rate, Sensitivity Analysis I (BOCF) ([2]; 200 mg, 3 month): 32.4% | Pain Composite Responder Rate, Sensitivity Analysis II ([2]; 200 mg, 3 month): 32.7% | Pain Composite Responder Rate, Sensitivity Analysis III ([2]; 200 mg, 3 month): 32.4% | Pain Composite Responder Rate, Primary Analysis (LOCF) ([2]; 200 mg, 3 month, N = 441): 34.9% | Individual Component Responder Rate, PGIC (LOCF) ([2]; 200 mg, 6 month): 49.9% | Individual Component Responder Rate, Pain (LOCF) ([2]; 200 mg, 6 month): 35.4% | Pain Composite Responder Rate, Sensitivity Analysis I (BOCF) ([2]; 200 mg, 6 month): 27.0% | Pain Composite Responder Rate, Sensitivity Analysis II ([2]; 200 mg, 6 month): 28.6% | Pain Composite Responder Rate, Sensitivity Analysis III ([2]; 200 mg, 6 month): 29.9% | Pain Composite Responder Rate, Primary Analysis (LOCF) ([2]; 200 mg, 6 month, N = 441): 32.2% | m, number of responders ([2]; 200 mg, treatment weeks 14-15, n = 260): 143 | m, number of responders ([2]; 200 mg, treatment weeks 26-27, n = 230): 119 | long-term relief from fibromyalgia and its symptoms ([2]; continued daily administration for at least three months): provides long-term (at least three months) relief from fibromyalgia and its symptoms | percentage of responders (greater than 30% reduction in pain from baseline and improvement on the PGIC) ([2]; milnacipran 100 mg/day BID, 3 months (treatment weeks 14-15)): 53.33% and 53.3% | percentage of responders (greater than 30% reduction in pain from baseline and improvement on the PGIC) ([2]; milnacipran 100 mg/day BID, 3 months (treatment weeks 14-15), listed as Milnacipran): 53.33% | percentage of responders (greater than 30% reduction in pain from baseline and improvement on the PGIC) ([2]; milnacipran 100 mg/day BID, 6 months (treatment weeks 26-27)): 49.59% and 49.6% | percentage of responders (greater than 30% reduction in pain from baseline and improvement on the PGIC) ([2]; milnacipran 100 mg/day BID, 6 months (treatment weeks 26-27), listed as Milnacipran): 49.59% | percentage of responders (greater than 30% reduction in pain from baseline and improvement on the PGIC) ([2]; milnacipran 200 mg/day BID, 3 months (treatment weeks 14-15)): 55.0% | percentage of responders (greater than 30% reduction in pain from baseline and improvement on the PGIC) ([2]; milnacipran 200 mg/day BID, 3 months (treatment weeks 14-15), listed as Milnacipran): 55.00% | percentage of responders (greater than 30% reduction in pain from baseline and improvement on the PGIC) ([2]; milnacipran 200 mg/day BID, 6 months (treatment weeks 26-27)): 51.74% and 51.7% | percentage of responders (greater than 30% reduction in pain from baseline and improvement on the PGIC) ([2]; milnacipran 200 mg/day BID, 6 months (treatment weeks 26-27), listed as Milnacipran): 51.74%

CN(C)CCC=C1c2ccccc2C=Cc2ccccc21 [cyclobenzaprine]
subjects with significant clinical improvement [1]: 12% | long-term efficacy [1]: no long-term efficacy could be demonstrated | difference from placebo [1]: no difference between either treatment group and placebo
